IC50 data for 21 molecules are collected here from patent US5714127A, “System for multiple simultaneous synthesis” (Warner-Lambert Company, priority 1995, dated 1998).

SMILES strings stand for the structures.

As a reminder, the IC50 is the concentration needed to halve the response being measured.

The first experiment addresses benzodiazepine receptor. Description: benzodiazepine receptor binding assay (NovaScreen), [3H]Flunitrazipam radioligand. The arrangement: species or system bovine. The note with it: commercially available reference samples (Table 3 footnote). From the text: After the final compounds are formed using the inventive reaction apparatus, method and system, they are individually tested for biological activity once they are isolated. For example, the method of Sweetnam, et al, Molecular Pharmacology 1986; 29:299 employing bovine cortical membranes as a receptor source and a radiolabeled benzodiazepine, such as Flunitrazepam, to determine competitive ligand binding to the benzodiazepine receptor (central [brain] localized) and some quantitative measure of relative binding potency such as KD or IC50 values. Performing this type of assay serves two purposes: 1) to discover new compounds with biological activity in a given biological screening assay and 2) the development of a relationship between the structural variations contained within the series and biological potency. This second utility is known as development of a structure activity relationship (SAR). This type of assay can be done using the compounds isolated from the array synthesis for any receptor binding screen or assay (screening for receptor agonists or antagonists), enzyme functional assays (measuring competitive or noncompetitive inhibition of the catalyzed reaction), and the like. This strategy may be used to screen for pharmaceutical agents, veterinary agents, agricultural agents, diagnostic reagents, and the like.
To verify that the compounds produced could be used directly in a biological assay, the crude benzodiazepines are tested for activity in a benzodiazepine receptor binding assay without further purification. (The assay was performed using the commercially available NovaScreen® assay system contracted by Scios-Nova Pharmaceutical Corp., Baltimore, Md., whereby bovine cortical membrane preparations were used as the source of receptor and the radioligand employed was [^3 H]Flunitrazipam while the positive control was Clonazepam.) The calculated IC50 's from three concentrations (average of two determinations) for the individual compounds are shown in Table 3.
In turn, `CN1C(=O)CN=C(c2ccccc2)c2cc(Cl)ccc21` [Diazepam, reference compound] returned an IC50 of 0.00067 µM.

Still in this experiment, the particulars now being: crude benzodiazepines without further purification; bovine cortical membranes; [3H]Flunitrazipam; calculated from three concentrations (average of two determinations).
In the case of `CC1N=C(c2ccccc2)c2ccccc2NC1=O` (stereo not drawn) [Number 1], the IC50 is 5.79 µM.
Turning to `CC1N=C(c2ccccc2)c2cc(Cl)ccc2NC1=O` (stereo not drawn) [Number 2], the IC50 was 0.089 µM.
On the same count and under the same terms, for `CC1N=C(c2ccccc2)c2cc([N+](=O)[O-])ccc2NC1=O` (stereo not drawn) [Number 4] the value was 0.482 µM; for `CC1N=C(c2ccccc2)c2cc([N+](=O)[O-])ccc2N(C)C1=O` (stereo not drawn) [Number 6], 1 µM.
For the molecule `CC1N=C(c2cccs2)c2ccccc2NC1=O` (stereo not drawn) [Number 8], the IC50 was 5.9 µM.
On the same count and under the same terms, for `O=C1CN=C(c2ccccc2)c2ccccc2N1` [Number 9] the value was 0.515 µM; for `O=C1CN=C(c2ccccc2)c2cc(Cl)ccc2N1` [Number 10], 0.032 µM; for `COc1ccc(C2=NCC(=O)Nc3ccccc32)cc1` [Number 11], 28.3 µM.
Still for that read-out and setting: the value for `O=C1CN=C(c2ccccc2)c2cc([N+](=O)[O-])ccc2N1` [Number 12] was 0.016 µM; that for `Cc1ccc2c(c1)N(C(C)C)C(=O)CN=C2c1ccccc1` [Number 13] was 18.6 µM; that for `CN1C(=O)CN=C(c2ccccc2)c2cc([N+](=O)[O-])ccc21` [Number 14] was 0.064 µM.
Same read-out and setting: for `O=C1CN=C(C2CCCCC2)c2ccccc2N1` [Number 15] the value was 25.7 µM; for `O=C1CN=C(c2cccs2)c2ccccc2N1` [Number 16], 1.12 µM.
Take `O=C1Nc2ccc([N+](=O)[O-])cc2C(c2ccccc2)=NC1Cc1c[nH]c2ccccc12` (stereo not drawn) [Number 20]: the half-maximal inhibitory concentration (IC50) is 12.7 µM.

Staying with this experiment, now noted: crude benzodiazepines without further purification; bovine cortical membranes; [3H]Flunitrazipam; cells that print their own unit mM.
In the case of `COc1ccc(C2=NC(C)C(=O)Nc3ccccc32)cc1` (stereo not drawn) [Number 3], the IC50 is above 1000 µM.
On the same count and under the same terms, for `Cc1ccc2c(c1)N(C(C)C)C(=O)C(C)N=C2c1ccccc1` (stereo not drawn) [Number 5] the value was above 1000 µM; for `CC1N=C(C2CCCCC2)c2ccccc2NC1=O` (stereo not drawn) [Number 7], above 1000 µM.
Still for that read-out and setting: for `O=C1Nc2ccccc2C(c2ccccc2)=NC1Cc1c[nH]c2ccccc12` (stereo not drawn) [Number 17] the value was above 1000 µM; for `O=C1Nc2ccc(Cl)cc2C(c2ccccc2)=NC1Cc1c[nH]c2ccccc12` (stereo not drawn) [Number 18], above 1000 µM; for `COc1ccc(C2=NC(Cc3c[nH]c4ccccc34)C(=O)Nc3ccccc32)cc1` (stereo not drawn) [Number 19], above 1000 µM.
